Measured values taken from patent publication US20210382058A1, “PATIENT SELECTION FOR TREATMENT OF MYC POSITIVE CANCERS WITH INDENOISOQUINOLINES” (Purdue Research Foundation, priority 2020, published 2021).
Read-outs that look alike come from different tables or passages of the source.

What was measured:
[1] = test system: MYC protein expression in MCF-7 breast cancer cells; test: Western blotting of MYC protein level in MCF-7 cells; format: cell-based, human; settings: Homo sapiens, MCF7; western blotting, MCF-7 cells, 0.5, 1, 2, and 4 μM, 24 hours; read-out: MYC Inhibition
How it was run: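 Immunoblotting with ECL detection quantified MYC, with GAPDH (1:2000) as reference and anti-MYC at 1:1000.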

[2] = biological target: T1, human topoisomerase I (Homo sapiens, UniProt P11387); settings: relative topoisomerase I inhibition levels, previously determined, six levels (0 - 5, +++++ = 5); cited from earlier work
T1 sequence (P11387 1-765): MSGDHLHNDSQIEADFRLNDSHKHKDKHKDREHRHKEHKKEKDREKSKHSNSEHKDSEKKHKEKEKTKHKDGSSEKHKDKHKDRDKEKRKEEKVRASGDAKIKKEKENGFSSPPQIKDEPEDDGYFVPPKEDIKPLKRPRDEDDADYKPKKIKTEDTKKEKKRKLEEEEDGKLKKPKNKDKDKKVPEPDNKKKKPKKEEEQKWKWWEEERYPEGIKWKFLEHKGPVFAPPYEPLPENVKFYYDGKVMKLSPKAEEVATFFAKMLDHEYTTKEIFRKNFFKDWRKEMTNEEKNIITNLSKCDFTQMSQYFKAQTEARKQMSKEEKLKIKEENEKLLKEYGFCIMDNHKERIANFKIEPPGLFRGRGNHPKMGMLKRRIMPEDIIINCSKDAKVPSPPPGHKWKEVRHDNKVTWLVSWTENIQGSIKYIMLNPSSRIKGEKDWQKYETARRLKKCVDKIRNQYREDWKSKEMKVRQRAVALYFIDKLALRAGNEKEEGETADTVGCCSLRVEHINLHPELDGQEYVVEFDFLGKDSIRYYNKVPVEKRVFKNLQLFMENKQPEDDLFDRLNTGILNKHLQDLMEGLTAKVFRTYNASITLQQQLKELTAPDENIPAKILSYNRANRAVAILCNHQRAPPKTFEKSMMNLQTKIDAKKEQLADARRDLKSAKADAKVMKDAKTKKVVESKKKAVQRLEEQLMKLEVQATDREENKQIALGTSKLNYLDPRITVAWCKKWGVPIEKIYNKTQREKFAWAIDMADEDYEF

[3] = test system: NCI-60 cancer cell lines; test: NCI-60 cancer cell line drug screen (GI50, MGM); format: cell-based, human; settings: Homo sapiens; for GI50: read-out: Antiproliferative Activities [GI50 (μM)]
Method: Cancer cells were incubated with the test compounds at five concentrations ranging from 100 μM to 10 nM for 48 h. […] The approximate average of GI50 values across the entire panel of NCI-60 cancer cell lines for each compound was recorded as the MGM value.

COc1cc2c(cc1O)-c1c(c3ccc([N+](=O)[O-])cc3c(=O)n1CCCn1ccnc1)C2=O [Compound 37]
minimal effective concentration [1]: 0.5 to 1 µM
Top1 Inhibiton [2]: ++ (medium inhibition, ++, MYC expression inhibited at 2.0 μM, or no clear dose-dependent MYC inhibition)
GI50 ([3]; 786-0, Renal Cancer, 786-0): 0.33 µM
GI50 ([3]; ACHN, Renal Cancer, ACHN): 0.31 µM
GI50 ([3]; BT-549, Breast Cancer, BT-549): 0.35 µM
GI50 ([3]; CAKI-1, Renal Cancer, CAKI-1): 0.22 µM
GI50 ([3]; CCRF-CEM, Leukemia, CCRF-CEM): 0.66 µM
GI50 ([3]; COLO 205, Colon Cancer, COLO 205): 7.9 µM
GI50 ([3]; DU-145, Prostate Cancer, DU-145): 0.33 µM
GI50 ([3]; HCC 2998, Colon Cancer, HCC-2998): 37.1 µM
GI50 ([3]; HCT-15, Colon Cancer, HCT-15): > 100 µM
GI50 ([3]; HCT-116, Colon Cancer, HCT-116): 0.74 µM
GI50 ([3]; HL-60, Leukemia, HL-60(TB)): 0.59 µM
GI50 ([3]; HOP-62, Non-Small Cell Lung Cancer, HOP-62): 0.59 µM
GI50 ([3]; HOP-92, Non-Small Cell Lung Cancer, HOP-92): 13.6 µM
GI50 ([3]; HT-29, Colon Cancer, HT29): 4.08 µM
GI50 ([3]; Hs-578T, Breast Cancer, HS 578T): > 100 µM
GI50 ([3]; IGROV-1, Ovarian Cancer, IGROV1): 11.3 µM
GI50 ([3]; K562, Leukemia, K-562): 2.25 µM
GI50 ([3]; KM12, Colon Cancer, KM12): 9.39 µM
GI50 ([3]; LOX IMVI, Melanoma, LOX IMVI): 0.3 µM
GI50 ([3]; Leukemia, SR): 0.03 µM
GI50 ([3]; MCF7, Breast Cancer, MCF7): 0.08 µM
GI50 ([3]; MDA-MB-231, Breast Cancer, MDA-MB-231/ATCC): 18.1 µM
GI50 ([3]; MDA-MB-435, Melanoma, MDA-MB-435): 2.84 µM
GI50 ([3]; MOLT-4, Leukemia, MOLT-4): 0.24 µM
GI50 ([3]; Malme-3M, Melanoma, MALME-3M): 1.79 µM
GI50 ([3]; NCI-H23, Non-Small Cell Lung Cancer, NCI-H23): 0.68 µM
GI50 ([3]; NCI-H322M, Non-Small Cell Lung Cancer, NCI-H322M): 72.6 µM
GI50 ([3]; NCI-H460, Non-Small Cell Lung Cancer, NCI-H460): 0.24 µM
GI50 ([3]; NCI-H522, Non-Small Cell Lung Cancer, NCI-H522): 0.1 µM
GI50 ([3]; OVCAR-3, Ovarian Cancer, OVCAR-3): 1.35 µM
GI50 ([3]; OVCAR-4, Ovarian Cancer, OVCAR-4): 1.41 µM
GI50 ([3]; OVCAR-5, Ovarian Cancer, OVCAR-5): > 100 µM
GI50 ([3]; OVCAR-8, Ovarian Cancer, OVCAR-8): 0.89 µM
GI50 ([3]; Ovarian Cancer, NCl/ADR-RES): > 100 µM
GI50 ([3]; Prostate Cancer, PC-3): 7.22 µM
GI50 ([3]; RPMI-8226, Leukemia, RPMI-8226): 0.7 µM
GI50 ([3]; RXF 393, Renal Cancer, RXF 393): 1.35 µM
GI50 ([3]; SF-268, CNS Cancer, SF-268): 0.27 µM
GI50 ([3]; SF-295, CNS Cancer, SF-295): 0.33 µM
GI50 ([3]; SF-539, CNS Cancer, SF-539): 0.37 µM
GI50 ([3]; SK-MEL-2, Melanoma, SK-MEL-2): 30.8 µM
GI50 ([3]; SK-MEL-5, Melanoma, SK-MEL-5): 1.67 µM
GI50 ([3]; SK-MEL-28, Melanoma, SK-MEL-28): 16.4 µM
GI50 ([3]; SK-OV-3, Ovarian Cancer, SK-OV-3): 0.56 µM
GI50 ([3]; SN12C, Renal Cancer, SN12C): 0.42 µM
GI50 ([3]; SNB-19, CNS Cancer, SNB-19): 12.8 µM
GI50 ([3]; SNB-75, CNS Cancer, SNB-75): 2.97 µM
GI50 ([3]; SW-620, Colon Cancer, SW-620): 0.81 µM
GI50 ([3]; T47D, Breast Cancer, T-47D): 12 µM
GI50 ([3]; TK-10, Renal Cancer, TK-10): 2.54 µM
GI50 ([3]; U-251, CNS Cancer, U251): 0.27 µM
GI50 ([3]; UACC-62, Melanoma, UACC-62): 0.21 µM
GI50 ([3]; UACC-257, Melanoma, UACC-257): 25.3 µM
mean GI50 across NCI-60 panel (MGM) ([3]; average of GI50 values across the entire panel of NCI-60 cancer cell lines): 1860 nM
